Measured values reported in PMC6967030, “Apparent Lack of BRAF^V600E Derived HLA Class I Presented Neoantigens Hampers Neoplastic Cell Targeting by CD8^+ T Cells in Langerhans Cell Histiocytosis” (Frontiers in Immunology, 2020).
Ends that are not written are not given here.

Experiments:
Assay in all cases: Competition-based peptide-HLA class I binding assay
HLA-A*02:01 = HLA-A*02:01 (Homo sapiens, UniProt P04439, D140Y/D185E/D98H/E176V/E277Q/G131W/G231S/I119V/I121R/I166T/I218V/L300P/L318F/N151K/N90K/P208A/P217A/Q86G/Q94H/R138H/R169H/T345S); settings: concentration that inhibits 50% binding of fluorescently-labeled standard peptide […], read-out: In vitro HLA binding affinity (IC50, nM), peptide-HLA binding assay, A*02:01
Method: Competition-based peptide-HLA class I binding assays were performed as previously described ([60]).

HLA-A*03:01 = HLA-A*03:01 (Homo sapiens, UniProt P04439); settings: concentration that inhibits 50% binding of fluorescently-labeled standard peptide […], read-out: In vitro HLA binding affinity (IC50, nM), peptide-HLA binding assay, A*03:01
Method: (§1) Competition-based peptide-HLA class I binding assays were performed as previously described ([60]). […] The standard peptides were […] for HLA-A^*02:01 and […] for HLA-A^*03:01 and HLA-A^*11:01.

HLA-A*11:01 = HLA-A*11:01 (Homo sapiens, UniProt P04439, A114D/D185E/E176A/F33Y/L180Q/S129P/T187R); settings: concentration that inhibits 50% binding of fluorescently-labeled standard peptide […], read-out: In vitro HLA binding affinity (IC50, nM), peptide-HLA binding assay, A*11:01
Method: as §1

| Sequence | IC50 (HLA-A*02:01) [nM] | IC50 (HLA-A*03:01) [nM] | IC50 (HLA-A*11:01) [nM] |
| --- | --- | --- | --- |
| KIGDFGLATE [KIGDFGLATE] | 86900 |  |  |
| KIGDFGLATEK |  | 672 | 45 |
| KIGDFGLATV | 40 |  |  |
| KIGDFGLATVK |  | 415 | 32 |
